{"source": "patent US20250204535A1", "about": "“Rodenticide” (priority 2022, published 2025)", "type_in_all_cases": "cell-based", "key": {"[1]": {"system": "Human IPSC-derived cardiomyocytes", "assay": "Screening synthetic peptides for alterations to human IPSC-derived cardiomyocyte beat rates", "settings": "2 h; dose not stated in the sentence (no increase at 0.1, 1 and 10 μg/ml)", "procedure": "The baseline beat rate of neonatal rat and human IPSC-derived cardiomyocytes to be treated with the three synthetic fractions were determined by video microscopy of each well in triplicate using a microscope camera. Average beats/min were calculated from the triplicate readings of three separate wells (n=9). Aliquots of each peptide were taken to treat neonatal rat cardiomyocyte cells at doses of 100, 10, 1 and 0.1 μg/ml. Cells were returned to a humidified incubator at 37° C., 5% CO2 for 2 h. After 2 h the beat rate of the treated cardiomyocyte cells was reassessed using the same method used to obtain the pre-dosing beat data. This process was repeated 24 h after the addition of the synthetic peptides."}, "[2]": {"system": "rat neonatal cardiomyocyte cells", "settings": "37, 60, 80, 100° C.; 6 μg/ml; rat cardiomyocytes; FIG. 4", "procedure": "Thermal stability of the six lead fractions was investigated. Aliquots of each fraction were heated in a heat block to 37° C. (unheated), 60° C., 80° C. and 100° C. before being used to treat rat neonatal cardiomyocyte cells at a dose of 6 μg/ml. Cardiomyocyte toxicity was assessed after 24 hrs of dosing at each temperature against a similar aliquot of each fraction that had been unheated before dosing. After 24 h, 160 μM Resazurin dye was added to all cells and the change in cardiomyocyte cell viability/metabolism monitored every hour up to 5 h post dye addition. An additional measurement was recorded 24 hs after the dye had been added."}, "[3]": {"system": "Embryonic chick cardiomyocytes", "assay": "Screening synthetic peptides for embryonic chick cardiomyocyte toxicity (resazurin, 24 h)", "settings": "10 μg/ml, toxicity control", "procedure": "Hearts were collected from euthanised 12-13 day old embryonic chicks and transferred into filter sterilized ice-cold hanks balanced salt solution (HBSS) containing 2% Pen-strep. Hearts were washed in the HBSS to remove blood, any non-heart tissue removed and then cut into 1-3 mm pieces and placed in 40 ml filter sterilized, ice cold 0.05% trypsin/HBSS. The heart pieces in trypsin were place in a large ice bucket and incubated for 1 h on a rocker with gentle agitation to allow the tissue to digest.\nAll trypsin was aspirated from the tissue and discarded, and the tissue transferred evenly into 2 ml Eppendorf tubes. The tissue was then digested further using a 1 mg/ml Collagenase II/0.1% Trypsin/HBSS (filter sterilized) solution. For each digestion, 2 ml of enzyme buffer was added to all Eppendorf tubes and the tubes incubated in a 37° C. heating block for 3 mins with 400 rpm agitation. The supernatant from the first two digestions was discarded. After each of the following digestion steps, the tissue was gently triturated using a Pasteur pipette to release cells. […]\n(§1) Rat neonatal cardiomyocytes, Embryonic chick cardiomyocytes, human IPSC-derived cardiomyocytes and rat cardiac fibroblast were cultured. […] After 24 h Resazurin dye was added to each well at a final concentration of 160 μM and the change in fluorescence of the dye monitored and recorded over a 24 h time period."}, "[4]": {"system": "Human IPSC-derived cardiomyocytes", "assay": "Screening synthetic peptides for human IPSC-derived cardiomyocyte toxicity (resazurin, 24 h)", "settings": "10 μg/ml, toxicity control", "procedure": "(§2) Human IPSC-derived cardiomyocytes were purchased from Axol Biosciences and cultured as via their standard methodology. Briefly, cells were recovered from liquid nitrogen storage when required and the cells transferred dropwise into 10 ml of pre-warmed (37° C.) plating media (cardiomyocyte maintenance media+10% FCS+10 μM ROCK inhibitor). Cells were centrifuged at 200×g for 5 mins at room temperature. The supernatant was aspirated from the cell pellet and the cell pellet gently resuspended in 1 ml plating media. Cells were counted using a haemocytometer and trypan blue staining. Cells were plated at a seeding density of 10-20,000 cells/well in fibronectin pre-coated 384 well plates. Cells were incubated at 37° C., 5% CO2 in a humidified incubator overnight before the plating media was removed the following day and replace with fresh maintenance media (No FCS, no ROCK inhibitor). Partial media changes were performed every 2-days until cells formed a single continuous sheet of spontaneously beating cardiomyocytes (7-10 day in culture).\nas §1"}, "[5]": {"system": "Neonatal rat cardiomyocytes", "assay": "Screening purified venom fractions for alterations to cardiomyocyte beat rates", "settings": "for Highest Achieved Fold Increases in Beat Rate: 1 h; for fold increases to beat rate: dose of 6 μg/ml", "procedure": "Neonatal rat cardiomyocytes were isolated as via standard protocol and seeded at a density of 100,000 cells/96 well. Once myocyte cultures were beating spontaneously in uniform sheets, they were videoed well-by-well using a microscope camera to determine pre-dose beat rates/min. […] Cells were incubated in each fraction in a humidified incubator at 37° C., 5% CO2 for 1 h. After 1 h videos of the cells were re-recorded to obtain the post-dosing beat rate/minute. Fold changes in beat frequency were calculated for each dosed well pair."}, "[6]": {"system": "neonatal rat cardiac fibroblast cells", "assay": "Screening purified venom fractions for rat cardiac fibroblast toxicity (resazurin)", "settings": "neonatal rat cardiac fibroblasts", "procedure": "Hearts were collected from euthanised 1-2-day old neonatal rat pups and transferred into filter sterilised ice-cold Hanks balanced salt solution (HBSS) containing 2% Pen-strep. Hearts were washed in the HBSS, any non-heart tissue removed and then cut into 1-3 mm pieces and placed in 40 ml filter sterilised, ice cold 0.1% trypsin/HBSS. The heart pieces in trypsin were place in a large ice bucket and incubated overnight at 4° C. on a rocker with gentle agitation to allow the tissue to digest.\nThe following day, all trypsin was aspirated from the tissue and the tissue transferred evenly into 2 ml Eppendorf tubes. The tissue was then digested further using a 37° C. 1 mg/ml collagenase/HBSS (filter sterilised) solution. For each collagenase digestion, 2 ml of enzyme buffer was added to all Eppendorf tubes and the tubes incubated in a 37° C. heating block for 2 mins with 400 rpm agitation. The supernatant from the first two digestions was discarded. After each of the following digestion steps, the tissue was gently triturated using a pipette to release cells. Once trituration was complete the supernatant was retained, added to a tube containing 10 ml cell culture media and stored on ice.\nAll cell containing supernatants were filtered through a 250 μm cell strainer to remove any potentially undigested tissue and myocytes separated from cardiac fibroblast by spinning the supernatant at 1800 g for 45 mins through a Percoll gradient. […]\nNeonatal rat cardiomyocytes and cardiac fibroblasts were treated with purified venom fractions suspected of being cardiotoxins at doses of 12.5, 7.5, 6 μg/ml, with rat cardiomyocytes being treated at additional concentrations of 3.5, 2.5, 1 and 0.5 μg/ml for 2 hs in a humidified incubator at 37° C., 5% CO2. […] The change in fluorescence of the resazurin dye was monitored over a 5 h timeframe using a BMG Fluostar plate reader. Percent inhibition of both cell types in response to each fraction at each dose were calculated and plotted graphically."}, "[7]": {"system": "Human IPSC-derived cardiomyocytes", "assay": "Six lead fractions: toxicity to human IPSC-derived cardiomyocytes (resazurin)", "settings": "3.5 μg/ml", "procedure": "as §2\nOnce beating spontaneously, cells were treated with the six lead fractions diluted in maintenance media to final working concentrations of 7.5, 6, 3.5, 2.5 and 1 μg/ml. 30 μl of each fraction dilution was added to triplicate wells of cells and incubated for 2 h at 37° C., 5% CO2 in a humidified incubator. After 2 h, resazurin dye at a final working concentration of 160 μM were added to all wells and the change in fluorescence of the plate monitored over a 5 h timeframe using a BMG Labtech Fluostar plate reader. Percent toxicity was calculated from triplicate wells at each dose and plotted graphically.\nHuman IPSC derived cardiomyocytes were dosed in triplicate with a serial dilution of each of the six venom fractions (7.5, 6, 3.5, 2.5 and 1 μg/ml) for 2 hs at 37° C., 5% CO2 before resazurin dye was added and the change in colour and fluorescence monitored for the following 5 hrs. Percentage toxicity was calculated for each fraction at all doses and plotted graphically (FIG. 3)."}}, "note": "Where no end group is shown, it is not given here.", "data": [{"substance": "LKCNKLIPLAYKT [Synthetic peptide 2]", "values": [{"measurement": "increase to the beat rate of human cardiomyocytes over pre-dosing beat rate", "setting": "[1]", "value": 1.5, "unit": "fold"}]}, {"substance": "N.nig_I19_R4 (LKCNKLIPIAYKTCPEGKNLCYKMMLASKKMVPVKRGCIDVCPKDSALVKYVCCSTDRCN)", "values": [{"measurement": "thermal stability (change in cytotoxic activity after heating)", "setting": "[2]", "value": "no significant changes in the activity"}, {"measurement": "toxicity against embryonic chick cardiomyocytes", "setting": "[3]", "value": "≈ 90%"}, {"measurement": "toxicity against human IPSC-derived cardiomyocytes", "setting": "[4]", "value": "≈ 90%"}, {"measurement": "Highest Achieved Fold Increases in Beat Rate", "setting": "[5]; Dose 1 μg/ml", "value": 6.25, "unit": "fold"}, {"measurement": "fold increases to beat rate", "setting": "[5]", "value": "greater than 5.5 fold"}, {"measurement": "doses showing cardiac fibroblast toxicity", "setting": "[6]", "value": 12.5, "unit": "µg/mL"}]}, {"substance": "N.nka_I18_R4 (LKCNKLIPLAYKTCPAGKDLCYKMYMVSDKTVPVKRGCIDVCPKNSLLVKYECCNTDRCN)", "values": [{"measurement": "thermal stability (change in cytotoxic activity after heating)", "setting": "[2]", "value": "no significant changes in the activity"}, {"measurement": "toxicity in human IPSC-derived cells compared to rodent cardiomyocytes", "setting": "[7]", "value": "reduction in toxicity"}, {"measurement": "toxicity against embryonic chick cardiomyocytes", "setting": "[3]", "value": "≈ 90%"}, {"measurement": "toxicity against human IPSC-derived cardiomyocytes", "setting": "[4]", "value": "≈ 90%"}, {"measurement": "Highest Achieved Fold Increases in Beat Rate", "setting": "[5]; Dose 6 μg/ml", "value": 7.00, "unit": "fold"}, {"measurement": "fold increases to beat rate", "setting": "[5]", "value": "greater than 7 fold"}]}]}
